Bounds are passed on as bounds.

In patent publication US12180226B2, “Spirotricycle RIPK1 inhibitors and methods of uses thereof” (Merck Sharp & Dohme LLC, priority 2021, dated 2024) one finds EC50 data, which are given here for 23 compounds.

In this experiment the target is RIPK1 (recombinant GST-RIPK1 kinase domain, residues 1-327) (Homo sapiens (Human), UniProt Q13546). Nature of the experiment: RIPK1-ADP-Glo Enzymatic Assay. The experiment is classed as biochemical. Conditions: ADP-Glo; 25 nM GST-RIPK1, 300 μM ATP; assay lower limit ~25 nM; read-out: RIPK1 V0 Ec50. The protocol: RIPK1-ADP-Glo Enzymatic Assay
RIPK1 (recombinant GST-RIPK1 kinase domain, residues 1-327), sequence (Q13546 1-327): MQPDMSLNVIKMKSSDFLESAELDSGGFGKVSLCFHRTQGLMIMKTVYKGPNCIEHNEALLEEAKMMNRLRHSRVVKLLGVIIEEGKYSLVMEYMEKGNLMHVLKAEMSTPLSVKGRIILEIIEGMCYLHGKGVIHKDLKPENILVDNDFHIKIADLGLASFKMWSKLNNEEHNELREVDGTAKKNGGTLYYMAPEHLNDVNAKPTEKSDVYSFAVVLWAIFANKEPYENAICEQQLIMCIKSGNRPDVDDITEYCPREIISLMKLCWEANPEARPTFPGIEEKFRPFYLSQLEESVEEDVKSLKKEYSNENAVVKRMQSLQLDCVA
The enzymatic activity of RIPK1 is measured using an assay derived from ADP-Glo kit (TMPromega), which provides a luminescent-based ADP detection system. Specifically, the ADP generated by RIPK1 kinase is proportionally detected as luminescent signals in a homogenous fashion. In this context, the assessment of the inhibitory effect of small molecules (EC50) is measured by the effectiveness of the compounds to inhibit the ATP to ADP conversion by RIPK1.
In this assay, the potency (EC50) of each compound was determined from a ten-point (1:3 serial dilution; top compound concentration of 100000 nM) titration curve using the following outlined procedure. The assay bottom or lower limit of confidence is ˜25 nM. To each well of a white ProxiPlus 384 well-plate, 30 nL of compound (1% DMSO in final assay volume of 3 μL) was dispensed, followed by the addition of 2 μL of 1×assay buffer (25 mM Hepes 7.3, 20 mM MgCl2, 50 mM NaCl, 1 mM DTT, 0.005% Tween20, and 0.02% BSA) containing 37.5 nM of GST-RIPK1 (recombinant GST-RIPK1 kinase domain (residues 1-327) enzyme produced from baculovirus-transfected Sf21 cells: MW=62 kDa). Plates were placed in an ambient temperature humidified chamber for a 30-minute pre-incubation with compound. Subsequently, each reaction was initiated by the addition of 1 μL 1×assay buffer containing 900 μM ATP and […] dephosphorylated-MBP substrate. The final reaction in each well of 3 μL consists of 25 nM of GST-RIPK1, 300 μM ATP, and 3 μM dephosphorylated-MBP. Kinase reactions were allowed to proceed for 150 minutes prior to adding ADP-Glo reagents per Promega's outlined kit protocol. Dose-response curves were generated by plotting percent effect (% product conversion; Y-axis) vs. Log10 compound concentrations (X-axis). EC50 values were calculated using a non-linear regression, four-parameters sigmoidal dose-response model.

For the compound `O=C1N2[C@@H](CC[C@H]2c2cc(F)cc(F)c2)OC12CCN(C(c1ccccc1)C(F)F)CC2` (stereo partly drawn) [Example 22.1, (5′S,7a′R)-1-(2,2-Difluoro-1-phenylethyl)-5′-(3,5-difluorophenyl)tetrahydro-3′H-spiro[piperidine-4,2′-pyrrolo[2,1-b]oxazol]-3′-one], the EC50 turned out to be 221 nM.
Consider `O=C(c1ncnc2c1CCC2)N1CCC2(CC1)O[C@@H]1CC[C@@H](c3cc(F)cc(F)c3)N1C2=O` [Example 6.15, (5′S,7a′R)-5′-(3,5-difluorophenyl)-1-(6,7-dihydro-5H-cyclopenta[d]pyrim-idine-4-carbonyl)-tetrahydro-3′H-spiro [piperidine-4,2′-pyrrolo-[2,1-b][1,3]oxazol]-3′-one], for which the EC50 is 547 nM.
The result for `CSc1cc(N2CCC3(CC2)O[C@@H]2CC[C@@H](c4ccccc4)N2C3=O)ncn1` [Example 4.27, (5′S,7a′R)-1-[6-(methylsulfanyl)pyrimidin-4-yl]-5′-phenyltetrahydro-3′H-spiro[piperidine-4,2′-pyrrolo[2,1-b] [1,3]oxazol]-3′-one] reads 18 nM; that for `O=C1N2[C@@H](CC[C@H]2c2ccccc2)OC12CCN(c1ccc(=O)n(CC3CC3)n1)CC2` [Example 11.8, (5′S,7a′R)-1-[1-(cyclopropylmethyl)-6-oxo-1,6-dihydropyridazin-3-yl]-5′-phenyltetrahydro-3′H-spiro[piperidine-4,2′-pyrrolo[2,1-b][1,3]oxazol]-3′-one], 215 nM; that for `Cn1ccc(C(=O)N2CCC3(CC2)O[C@@H]2CC[C@@H](c4cc(F)cc(F)c4)N2C3=O)n1` [Example 5.39, (5′S,7a′R)-5′-(3,5-difluoro-phenyl)-1-(1-methyl-1H-pyrazole-3-carbonyl)tetra-hydro-3′H-spiro[piperi-dine-4,2′-pyrrolo[2,1-b]oxazol]-3′-one], 172 nM.
Consider `Cc1cnc(-c2ccc(N3CCC4(CC3)O[C@@H]3CC[C@@H](c5ccccc5)N3C4=O)n3nccc23)o1` [Example 21.17, (5′S,7a′R)-1-[4-(5-methyl-1,3-oxazol-2-yl)pyrazolo[1,5-a]pyridin-7-yl]-5′-phenyltetrahydro-3′H-spiro[piperidine-4,2′-pyrrolo[2,1-b][1,3]oxazol]-3′-one], for which the EC50 was under 25 nM.
In the case of `COc1cc(C(=O)N2CCC3(CC2)O[C@@H]2CC[C@@H](c4ccccc4)N2C3=O)ccc1F` [Example 6.158, (5′S,7a′R)-1-(4-fluoro-3-methoxybenzene-1-carbonyl)-5′-phenyl-tetrahydro-3′H-spiro [piperidine-4,2′-pyrrolo[2,1-b][1,3]oxazol]-3′-one], the 50% effective concentration (EC50) is under 25 nM.
Regarding `O=C1N2[C@@H](CC[C@H]2c2ccccc2)OC12CCN(c1cc(-c3ccccc3)ncn1)CC2` [Example 4.32, (5′S,7a′R)-5′-phenyl-1-(6-phenylpyrimidin-4-yl)tetrahydro-3′H-spiro[piperidine-4,2′-pyrrolo[2,1-b] [1,3]oxazol]-3′-one], the EC50 was under 25 nM.
In the case of `O=C(c1ccc(Br)cn1)N1CCC2(CC1)O[C@@H]1CC[C@@H](c3cc(F)cc(F)c3)N1C2=O` [Example 6.100, (5′S,7a′R)-1-(5-bromo-pyridine-2-carbonyl)-5′-(3,5-difluorophen-yl)tetrahydro-3′H-spiro[piperidine-4,2′-pyrrolo[2,1-b][1,3]-oxazol]-3′-one], the EC50 was 66.7 nM.
Turning to `COCOc1cc(-c2ccc(N3CCC4(CC3)O[C@@H]3CC[C@@H](c5ccccc5)N3C4=O)nc2)on1` [Example 4.164, (5′S,7a′R)-1-{5-[3-(methoxymethoxy)-1,2-oxazol-5-yl]pyridin-2-yl}-5′-phenyltetrahydro-3′H-spiro[piperidine-4,2′-pyrrolo[2,1-b] [1,3]oxazol]-3′-one], the EC50 amounted to 28.8 nM.
The result for `O=C1N2[C@@H](CC[C@H]2c2ccccc2)OC12CCN(c1ccnc(C3CC3)n1)CC2` [Example 11.15, (5′S,7a′R)-1-(2-cyclopropylpyrimidin-4-yl)-5′-phenyltetrahydro-3′H-spiro[piperidine-4,2′-pyrrolo[2,1-b][1,3]oxazol]-3′-one] reads 81.7 nM.
As to `O=C1N2[C@@H](CC[C@H]2c2cc(F)cc(F)c2)OC12CN(c1ccnc3c(F)cnn13)C2` [Example 4.117, (5′S,7a′R)-5′-(3,5-difluorophenyl)-1-(3-fluoropyrazolo[1,5-a]pyrimidin-7-yl)tetrahydro-3′H-spiro[azetidine-3,2′-pyrrolo[2,1-b]oxazol]-3′-one], the EC50 was under 25 nM.
Next, `COc1cc(C(=O)N2CCC3(CC2)O[C@@H]2CC[C@@H](c4cccc(F)c4)N2C3=O)ccc1F` [Example 6.120, (5′S,7a′R)-1-(4-fluoro-3-methoxybenzene-1-carbonyl)-5′-(3-fluoro-phenyl)tetrahydro-3′H-spiro[piperidine-4,2′-pyrrolo[2,1-b][1,3]oxazol]-3′-one]: under 25 nM; `O=C1N2[C@@H](CC[C@H]2c2ccccc2F)OC12CN(CCc1ccccc1)C2` [Example 22.8, (5′S,7a′R)-5′-(2-fluorophenyl)-1-(2-phenylethyl)tetrahydro-3′H-spiro[azetidine-3,2′-pyrrolo[2,1-b][1,3]oxazol]-3′-one]: 348 nM; `CCc1ccc(N2CCC3(CC2)O[C@@H]2CC[C@@H](c4ccccc4)N2C3=O)n2ncnc12` [Example 4.221, (5′S,7a′R)-1-(8-ethyl[1,2,4]triazolo[1,5-a]pyridin-5-yl)-5′-phenyltetrahydro-3′H-spiro[piperidine-4,2′-pyrrolo[2,1-b] [1,3]oxazol]-3′-one]: under 25 nM.
As for `COc1cccc(C(=O)N2CCC3(CC2)O[C@@H]2CC[C@@H](c4cc(F)cc(F)c4)N2C3=O)c1` [Example 6.10, (5′S,7a′R)-5′-(3,5-difluorophenyl)-1-(3-methoxybenzene-1-carbonyl)tetrahydro-3′H-spiro[piperidine-4,2′-pyrrolo[2,1-b] [1,3]oxazol]-3′-one], the EC50 was under 25 nM.
The result for `N#Cc1cncc([C@@H]2CC[C@H]3SC4(CCN(C(=O)c5ccccc5)CC4)C(=O)N32)c1` [Example 7.4, 5-[(5′S,7a′R)-1-(benzenecarbonyl)-3′-oxotetrahydro-3′H-spiro[piperidine-4,2′-pyrrolo[2,1-b][1,3]thiazol]-5′-yl]pyridine-3-carbonitrile] reads 108 nM; that for `O=C1N2[C@@H](CC[C@H]2c2ccccc2)OC12CCN(c1ccc(-c3nnc(C(F)(F)F)o3)cn1)CC2` [Example 4.165, (5′S,7a′R)-5′-phenyl-1-{5-[5-(trifluoromethyl)-1,3,4-oxadiazol-2-yl]pyridin-2-yl}tetrahydro-3′H-spiro[piperidine-4,2′-pyrrolo[2,1-b] [1,3]oxazol]-3′-one], 144 nM.
`Cc1cncc(C(=O)N2CCC3(CC2)O[C@@H]2CC[C@@H](c4cc(F)cc(F)c4)N2C3=O)n1` [Example 6.4, (5′S,7a′R)-5′-(3,5-difluorophenyl)-1-(6-methylpyrazine-2-carbonyl)tetrahydro-3′H-spiro[piperidine-4,2′-pyrrolo[2,1-b] [1,3]oxazol]-3′-one]: the EC50 was 760 nM.
For the compound `O=C(c1cnc(Cl)cn1)N1CCC2(CC1)O[C@@H]1CC[C@@H](c3cc(F)cc(F)c3)N1C2=O` [Example 6.86, (5′S,7a′R)-1-(5-chloro-pyrazine-2-carbonyl)-5′-(3,5-difluorophen-yl)tetrahydro-3′H-spiro[piperidine-4,2′-pyrrolo[2,1-b][1,3]-oxazol]-3′-one], the half-maximal effective concentration (EC50) amounted to 86 nM.
For `O=C(c1cc(F)ccc1Cl)N1CCC2(CC1)O[C@@H]1CC[C@@H](c3ccccc3F)N1C2=O` [Example 1.15, (5′S,7a′R)-1-(2-chloro-5-fluorobenzoyl)-5′-(2-fluorophenyl)tetrahydro-3′H-spiro[piperidine-4,2′-pyrrolo[2,1-b]oxazol]-3′-one], the concentration giving a half-maximal response (EC50) came out at 33.4 nM.
`COc1cc(N2CCC3(CC2)O[C@@H]2CC[C@@H](c4cccc(F)c4)N2C3=O)ncn1` [Example 4.51, (5′S,7a′R)-5′-(3-fluorophenyl)-1-(6-methoxypyrimidin-4-yl)tetrahydro-3′H-spiro[piperidine-4,2′-pyrrolo[2,1-b] [1,3]oxazol]-3′-one]: the EC50 was found to be 41.2 nM.
Turning to `Cc1cccc(C(=O)N2CCC3(CC2)O[C@@H]2CC[C@@H](c4cc(F)cc(F)c4)N2C3=O)c1F` [Example 6.8, (5′S,7a′R)-5′-(3,5-difluorophenyl)-1-(2-fluoro-3-methyl-benzene-1-carbonyl) tetrahydro-3′H-spiro [piperidine-4,2′-pyrrolo[2,1-b][1,3]oxazol]-3′-one], the half-maximal effective concentration (EC50) was under 25 nM.
